In US7300946B2, “N-(substituted arylmethyl)-4-(disubstituted methyl) piperidines and pyridines” (Bayer CropScience AG, priority 2002, dated 2007):

Test system: tobacco budworm (Heliothis virescens [Fabricius])
Experiment: surface-treated diet test against the tobacco budworm
Format: in vivo
Conditions: tobacco budworm second instar larvae, 0.25 millimoles of candidate insecticide on the surface of the diet, five-day exposure; for Percent Mortality: compared to total number of insects infested; for Percent Growth Inhibition: inhibition of insect weight relative to untreated controls
Procedure, shortened: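 Wheat germ artificial diet surface-treated with 40 µL of 50 mM DMSO stock diluted 1:7 in 1:1 water/acetone (0.25 millimolar on diet), or sub-multiples for rate tests. One second-instar larva per well, 25° C, 60% RH, 5 days; percent weight inhibition vs DMSO controls and percent mortality.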

| Structure (SMILES) | Percent Mortality (surface-treated diet) [%] | Percent Growth Inhibition (surface-treated diet) [%] | Percent Mortality [%] | Percent Growth Inhibition [%] |
| --- | --- | --- | --- | --- |
| CCCOc1ccc(CN2CCC(C(OC(=O)Nc3ccc(Cl)cc3)c3ccc(C(F)(F)F)cc3)CC2)cc1 (centres unmarked) [Compound 490] | 100 | 100 |  |  |
| CCON=Cc1ccc(CN2CCC(C(OC(=O)Nc3cc(F)cc(F)c3)c3ccc(Cl)cc3)CC2)cc1 (centres unmarked) [Compound 525] | 100 | 100 |  |  |
| CCn1nnc(-c2ccc(CN3CCC(C(OC(=O)Nc4ccc(C)cc4)c4ccc(OC(F)(F)F)cc4)CC3)cc2)n1 (centres unmarked) [Compound 285] | 100 | 100 |  |  |
| COc1ccc(NC(=O)NC(c2ccc(OC(F)(F)F)cc2)C2CCN(Cc3ccc(-c4nnn(C)n4)cc3)CC2)cc1 (centres unmarked) [Compound 343] | 100 | 100 |  |  |
| COc1ccc(CN2CCC(C(OC(=O)Nc3cc(F)cc(F)c3)c3ccc(OC(F)(F)F)cc3)CC2)cc1 (centres unmarked) [Compound 469] | 17 | 100 |  |  |
| O=C(Nc1cc(F)cc(F)c1)OC(c1ccc(C(F)(F)F)cc1)C1CCN(Cc2ccc(NC3=NCCO3)cc2)CC1 (centres unmarked) [Compound 563] | 0 | 96 |  |  |
| O=C(Nc1cccc(F)c1)OC(c1ccc(F)cc1)C1CCN(Cc2ccc(Oc3ncccn3)cc2)CC1 (centres unmarked) [Compound 716] |  |  | 100 | 100 |
| O=C(Nc1cc(F)cc(F)c1)OC(c1ccc(Cl)c(Cl)c1)C1CCN(Cc2ccc(Oc3ncccn3)cc2)CC1 (centres unmarked) [Compound 723] |  |  | 100 | 100 |
| O=C(Nc1cc(F)cc(F)c1)OC(c1ccc(OC(F)(F)F)cc1)C1CCN(Cc2ccc(Oc3ncccn3)cc2)CC1 (centres unmarked) [Compound 735] |  |  | 100 | 100 |
| O=C(Nc1ccc(Cl)c(Cl)c1)OC(c1ccc(C(F)(F)F)cc1)C1CCN(Cc2ccc(Oc3ccccn3)cc2)CC1 (centres unmarked) [Compound 230] | 100 | 100 |  |  |
| CC(C)OC(=O)Nc1ccc(CN2CCC(C(OC(=O)Nc3cccc(F)c3)c3cc(Cl)cc(Cl)c3)CC2)cc1 (centres unmarked) [Compound 509] | 100 | 100 |  |  |
| CCn1nnc(-c2ccc(CN3CCC(C(OC(=O)Nc4ccc(F)c(F)c4)c4cccc(F)c4)CC3)cc2)n1 (centres unmarked) [Compound 584] | 100 | 100 |  |  |
| CCn1nnc(-c2ccc(CN3CCC(C(OC(=O)Nc4ccc(Cl)c(Cl)c4)c4ccc(OC)cc4)CC3)cc2)n1 (centres unmarked) [Compound 602] | 100 | 100 |  |  |
| O=C(Nc1cc(F)cc(F)c1)OC(c1ccc(OC(F)(F)F)cc1)C1CCN(Cc2ccc(Cl)cc2)CC1 (centres unmarked) [Compound 460] | 0 | 100 |  |  |
| CCn1nnc(-c2ccc(CN3CCC(C(OC(=O)Nc4ccc(Cl)cc4)c4ccc(F)c(F)c4)CC3)cc2)n1 (centres unmarked) [Compound 588] | 100 | 100 |  |  |
| CS(=O)(=O)Oc1ccc(CN2CCC(=C(c3ccc(C(F)(F)F)cc3)c3ccc(C(F)(F)F)cc3)CC2)cc1 [Compound 803] |  |  | 100 | 100 |
| O=C(Nc1ccc(Cl)c(Cl)c1)OC(c1ccc(C(F)(F)F)cc1)C1CC[N+]([O-])(Cc2ccc(Oc3ccccn3)cc2)CC1 (centres unmarked) [Compound 396] | 100 | 100 |  |  |
| Cn1nnc(-c2ccc(CN3CCC(C(OC(=O)Nc4cccc(Cl)c4)c4ccc(OC(F)(F)F)cc4)CC3)cc2)n1 (centres unmarked) [Compound 263] | 100 | 100 |  |  |
| COC(=O)Nc1ccc(CN2CCC(=C(c3ccc(C(F)(F)F)cc3)c3ccc(C(F)(F)F)cc3)CC2)cc1 [Compound 54] | 100 | 100 |  |  |
| O=C(Nc1ccc(C(F)(F)F)cc1)OC(c1ccc(Cl)c(Cl)c1)C1CCN(Cc2ccc(Oc3ccccn3)cc2)CC1 (centres unmarked) [Compound 651] | 100 | 100 |  |  |
| O=C(Nc1ccc(I)cc1)OC(c1ccc(C(F)(F)F)cc1)C1CCN(Cc2ccc(Oc3ccccn3)cc2)CC1 (centres unmarked) [Compound 677] | 100 | 100 |  |  |
| [O-][N+]1(Cc2ccc(Oc3ccccn3)cc2)CCC(=C(c2ccc(F)cc2)c2ccc(F)cc2)CC1 (centres unmarked) [Compound 842] |  |  | 100 | 100 |

| Structure (SMILES) | Percent Mortality (surface-treated diet) [%] | Percent Growth Inhibition (surface-treated diet) [%] | Percent Mortality [%] | Percent Growth Inhibition [%] |
| --- | --- | --- | --- | --- |
| [O-][N+]1(Cc2ccc(Oc3cccc(Cl)n3)cc2)CCC(=C(c2ccc(C(F)(F)F)cc2)c2ccc(C(F)(F)F)cc2)CC1 (centres unmarked) [Compound 108] | 100 | 100 |  |  |
| O=C(Nc1cc(F)cc(F)c1)OC(c1ccc(C(F)(F)F)cc1)C1CCN(Cc2ccc(Oc3ccccn3)cc2)CC1 (centres unmarked) [Compound 680] | 17 | 100 |  |  |
| CCNC(=S)Nc1ccc(CN2CCC(C(OC(=O)Nc3cc(F)cc(F)c3)c3ccc(C(F)(F)F)cc3)CC2)cc1 (centres unmarked) [Compound 518] | 17 | 96 |  |  |
| O=C(Nc1cc(F)cc(F)c1)OC(c1ccc(C(F)(F)F)cc1)C1CC[N+]([O-])(Cc2ccc(Oc3ncccc3Cl)cc2)CC1 (centres unmarked) [Compound 755] |  |  | 100 | 100 |
| CCON=Cc1ccc(CN2CCC(C(OC(=O)Nc3ccc(OC(F)(F)F)cc3)c3ccc(C(F)(F)F)cc3)CC2)cc1 (centres unmarked) [Compound 211] | 100 | 100 |  |  |
| CC(C)N(C)C(=O)OC(c1ccc(C(F)(F)F)cc1)C1CCN(Cc2ccc(Oc3ccccn3)cc2)CC1 (centres unmarked) [Compound 778] |  |  | 0 | 100 |
| O=C(Nc1ccc(C(F)(F)F)cc1)OC(c1ccc(C(F)(F)F)cc1)C1CC[N+]([O-])(Cc2ccc(Oc3ccccn3)cc2)CC1 (centres unmarked) [Compound 398] | 100 | 100 |  |  |
| CCn1nnc(-c2ccc(CN3CCC(C(OC(=O)Nc4ccc(F)c(F)c4)c4ccc(-c5ccccc5)cc4)CC3)cc2)n1 (centres unmarked) [Compound 613] | 83 | 100 |  |  |
| CCON=Cc1ccc(CN2CCC(C(OC(=O)Nc3cc(F)cc(F)c3)c3ccc(F)cc3)CC2)cc1 (centres unmarked) [Compound 528] | 100 | 100 |  |  |
| CCn1nnc(-c2ccc(CN3CCC(=C(c4ccc(F)cc4)c4ccc(Cl)cc4)CC3)cc2)n1 [Compound 79] | 83 | 100 |  |  |
| [O-][N+]1(Cc2ccc(Oc3ccccn3)cc2)CCC(=C(c2ccc(C(F)(F)F)cc2)c2ccc(C(F)(F)F)cc2)CC1 (centres unmarked) [Compound 106] | 100 | 100 |  |  |
| CCn1nnc(-c2ccc(CN3CCC(C(OC(=O)Nc4ccc(Cl)cc4)c4ccc(C(F)(F)F)cc4)CC3)cc2)n1 (centres unmarked) [Compound 265] | 100 | 100 |  |  |
| CCn1nnc(-c2ccc(CN3CCC(=C(c4ccccc4)c4ccc(C(F)(F)F)cc4)CC3)cc2)n1 [Compound 80] | 33 | 100 |  |  |
| [O-][N+]1(Cc2ccc(Oc3ncccn3)cc2)CCC(=C(c2ccc(C(F)(F)F)cc2)c2cccc(C(F)(F)F)c2)CC1 (centres unmarked) [Compound 853] |  |  | 100 | 100 |
| CC(C)OC(=O)Nc1ccc(CN2CCC(C(OC(=O)Nc3ccc(Cl)cc3)c3ccc(Cl)cc3Cl)CC2)cc1 (centres unmarked) [Compound 506] | 100 | 100 |  |  |
| CCCOc1ccc(CN2CCC(C(OC(=O)Nc3ccc(C(F)(F)F)cc3)c3ccc(Cl)cc3)CC2)cc1 (centres unmarked) [Compound 473] | 100 | 100 |  |  |
| CCON=Cc1ccc(CN2CCC(C(OC(=O)Nc3cc(F)cc(F)c3)c3ccc(OC(F)(F)F)cc3)CC2)cc1 (centres unmarked) [Compound 538] | 100 | 100 |  |  |
| O=C(Nc1ccc(F)c(F)c1)OC(c1ccc(C(F)(F)F)cc1)C1CC[N+]([O-])(Cc2ccc(Oc3ncccn3)cc2)CC1 (centres unmarked) [Compound 764] |  |  | 100 | 100 |
| CC(=O)Nc1ccc(CN2CCC(C(OC(=O)Nc3cc(F)cc(F)c3)c3ccc(C(F)(F)F)cc3)CC2)cc1 (centres unmarked) [Compound 495] | 0 | 98 |  |  |
| CCn1nnc(-c2ccc(CN3CCC(C(OC(=O)Nc4ccc(Cl)cc4)c4ccc(OC)c(OC)c4)CC3)cc2)n1 (centres unmarked) [Compound 608] | 83 | 100 |  |  |
| O=C(Nc1cccc(C(F)(F)F)c1)OC(c1cccc(C(F)(F)F)c1)C1CCN(Cc2ccc(Oc3ccccn3)cc2)CC1 (centres unmarked) [Compound 655] | 100 | 100 |  |  |
